# From patent US20220187282A1, “CARDIOMYOCYTE PROLIFERATION” (The Council of the Queensland Institute of Medical Research, priority 2019, published 2022)
# Where a name gives a salt, the structure may show the parent alone.
# Columns and labels:
# mature hCOs = assay: mature hCO, cardiomyocyte proliferation (Ki-67 intensity, Ki-67+ α-actinin cardiomyocytes); format: cell-based, human
# Method: hCOs were cultured in CTRL medium for formation for 5 days and then either kept in CTRL medium culture or changed to maturation medium (Mills et al., 2017a) comprising DMEM without glucose, glutamine and phenol red (ThermoFisher Scientific) supplemented with 4% […](without insulin) (ThermoFisher Scientific), 1% GlutaMAX (ThermoFisher Scientific), 200 μM L-ascorbic acid 2-phosphate sesquimagnesium salt hydrate and 1% Penicillin/Streptomycin (ThermoFisher Scientific), 1 mmol/L glucose and 100 μmon palmitic acid (conjugated to bovine serum albumin within B27 by incubating for 2h at 37° C., Sigma) with changes every 2-3 days.
# Whole-Mount Immunostaining hCOs were fixed for 60 min with 1% paraformaldehyde (Sigma) at room temperature and washed 3× with PBS, after which they were incubated with primary antibodies (see Star Methods Table) in Blocking Buffer, 5% FBS and 0.2% Triton-X-100 (Sigma) in PBS overnight at 4° C. Cells were then washed in Blocking Buffer 2× for 2 h and subsequently incubated with secondary antibodies (see Star Methods Table) and Hoechst33342 (1:1000) overnight at 4° C. They were washed in Blocking Buffer 2× for 2 h and imaged in situ or mounted on microscope slides using Fluoromount-G (Southern Biotech).
# For screening hCOs were imaged using a Leica DMi8 high content imaging microscope for in situ imaging. Custom batch processing files were written in Matlab R2013a (Mathworks) to remove the background, calculate the image intensity, and export the batch data to an Excel (Microsoft) spreadsheet.
# For more detailed images an Olympus IX81 confocal microscope was used for mounted hCO imaging. For cell cycle analysis experiments 3 random fields of view were imaged and manually quantified for proliferation. These were added together to calculate the percentage of hPSC-CM proliferation in each hCO.
# Hits were next validated in mature hCOs using a targeted concentration range based on their active concentrations in the initial immature hCO screen (FIG. 3A). Proliferation markers were quantified using high magnification confocal imaging as we found flow cytometry to be inaccurate in hCO (data not shown). Compounds 3, 63 and 65 had no impact on contractile force (FIG. 3B) at concentrations of 3 μM, 0.3 μM and 1 μM, respectively. […] The effects of both compound 3 and compound 65 were reversible, with proliferation ceasing within 5 days of compound withdrawal (FIG. 8B). Therefore, compound 3 (FIG. 3G) and compound 65 (Goldberg et al., 2009) (FIG. 3H) are both capable of inducing bona fide cardiomyocyte proliferation in mature hCOs without adversely affecting contractile properties.
# 2D hPSC-CM = 2D hPSC-CM culture, Ki-67 image cytometry (proliferation, number, size); format: cell-based, human; conditions: 24 h, 0.5 M mevalonic acid 5-phosphate, 20 μM GGPP, 20 μM FPP, 20 μM squalene
# Method: Day 15 dissociated differentiation cultures were plated at 100,000 cells/cm2 in 0.1% gelatin coated 96-well tissue culture plates in CTRL medium. For 3 day incubation experiments, after 2 days of culture in CTRL medium, cells were then treated with 10 μM simvastatin in maturation medium for a further 3 days. For 1 day incubation experiments, after 1 day of culture in CTRL medium, cells were treated with 10 μM simvastatin, 0.5 M (±)-Mevalonic acid 5-phosphate lithium salt hydrate, 20 μM geranylgeranyl pyrophosphate, 20 μM farnesyl pyrophosphate and/or 20 μM squalene in maturation medium for a further day.
# hCOs were fixed for 10 min with 1% paraformaldehyde (Sigma) at room temperature and washed 3× with PBS, after which they were incubated with primary antibodies (see Star Methods Table) in Blocking Buffer, 5% FBS and 0.2% Triton-X-100 (Sigma) in PBS for 1-2 hours at room temperature. Cells were then washed in Blocking Buffer 2× for 3 min and subsequently incubated with secondary antibodies (see Star Methods Table) and Hoechst33342 (1:1000) for 1 hour at room temperature. They were washed in Blocking Buffer 2× and imaged.
# For screening hCOs were imaged using a Leica DMi8 high content imaging microscope for in situ imaging. Custom batch processing files were written in Matlab R2013a (Mathworks) to analyse the number of cardiomyocytes, identify the nuclei of proliferating (Ki-67+) cardiomyocytes and determine the average size of the cardiomyocytes, and export the batch data to an Excel (Microsoft) spreadsheet.
# Initial experiments were performed in immature proliferative 2D hPSC-CM (FIG. 6A) using high content imaging (FIG. 6B) and image cytometry analysis (FIG. 13A). HMGCR mediated production of cholesterol metabolites was inhibited with 10 μM simvastatin for 3 days.
# In order to determine which metabolites in the mevalonate pathway are critical for proliferation, we performed experiments over 24 hours to enable more precise control of metabolites and to measure the primary effects of the manipulations. In these experiments, the mevalonate pathway was inhibited using 10 μM simvastatin, and then different metabolites were provided within the medium (highlighted in red in FIG. 6F).
# mature hCO = assay: single organoid quantitative proteomics of mature hCO; format: cell-based, human; conditions: mature hCO proteomics
# Method: Single hCO were washed 2× in PBS and snap frozen and stored at −80° C. Tissues were lysed in by tip-probe sonication in 1% SDS containing 100 mM Tris pH 8.0, 10 mM tris(2-carboxyethyl)phosphine, 40 mM 2-chloroacetamide and heated to 95° C. for 5 min. Proteins were purified using a modified Single-Pot Solid-Phase-enhanced Sample Preparation (SP3) strategy (Hughes et al., 2014). Briefly, Proteins were bound to Sera-Mag carboxylate coated paramagnetic beads in 50% acetonitrile containing 0.8% formic acid (v/v) (ThermoFisher Scientific). The beads were washed twice with 70% ethanol (v/v) and once with 100% acetonitrile. Proteins were digested on the beads in 100 mM Tris pH 7.5 containing 10% 2,2,2-Trifluoroethanol overnight at 37° C. with 200 ng of sequencing grade LysC (Wako Chemicals) and trypsin (Sigma). Beads were removed and peptides acidified to 1% trifluoroacetic acid prior to purification by styrene divinyl benzene-reversed phase sulfonated solid phase extraction microcolumns. Peptides were spiked with iRT peptides (Biognosys) and analysed on an Easy-nLC1200 coupled to a Q-Exactive HF in positive polarity mode. Peptides were separated using an in-house packed 75 μm×50 cm pulled column (1.9 μm particle size, C18AQ; Dr Maisch) with a gradient of 2-35% acetonitrile containing 0.1% FA over 120 min at 300 nL/min at 60° C. The instrument was operated in data-independent acquisition (DIA) mode essentially as described previously (Bruderer et al., 2017). Briefly, an MS1 scan was acquired from 350-1650 m/z (120,000 resolution, 3e6 AGC, 50 ms injection time) followed by 20 MS/MS variable sized isolation windows with HCD (30,000 resolution, 3e6 AGC, 27 NCE). A spectral library was created by fractionating a pooled mix of peptides from 10 separate hCO on an inhouse packed 320 μm×25 cm column (3 μm particle size, BEH; Waters) with a gradient of 2-40% acetonitrile containing 10 mM ammonium formate over 60 min at 6 μL/min using an Agilent 1260 HPLC. A total of 12 concatenated fractions were analysed using the identical LC-MS/MS conditions above except the instrument was operated in data-dependent acquisition (DDA) mode. Briefly, an MS1 scan was acquired from 350-1650 m/z (60,000 resolution, 3e6 AGC, 50 ms injection time) followed by 20 MS/MS with HCD (1.4 m/z isolation, 15,000 resolution, 1e5 AGC, 27 NCE). DDA data were processed with Andromeda in MaxQuant v1.5.8.3 (Cox and Mann, 2008) against the human UniProt database (January 2016) using all default settings with peptide spectral matches and protein false discovery rate (FDR) set to 1%. DIA data were processed with Spectronaut v11 (Bruderer et al., 2015) using all default settings with precursor and protein FDR set to 1% and quantification performed at MS2.
# Proteomic data were Log 2 transformed and median normalised. Removal of unwanted variation method (RUV) was applied to remove any batch effects (Gagnon-Bartsch et al., 2013). Differential abundance was determined with two sample t-tests with FDR-based multiple hypothesis testing correction. GO analysis was performed with DAVID v6.8 and gene ontology terms from BP_FAT (Huang da et al., 2009) and heat-maps and hierarchical clustering was performed using GENE-E (Broad Institute).
# In order to determine the biological processes driving the pro-proliferative effects of our hit compounds, we performed RNA-sequencing (RNA-seq) and single organoid quantitative proteomics (FIG. 4A). These analyses were performed on hCOs treated with compounds 3, 63 and 65 at concentrations of 3 μM, 0.3 μM and 1 μM, respectively. RNA-seq for hCO treated with compounds 3 and 65 clustered distinctly in principal component analysis (FIG. 4B) and regulated a total of 239 and 207 genes (FIG. 9A), respectively.
# [1] = tested on: adult rodent cardiomyocyte; conditions: Mohamed et al., 2018; cited from earlier work
# kinases = conditions: Fan et al., 2016; cited from earlier work
smiles,measurement,setting,value
"CC(O)(CCOP(=O)(O)O)CC(=O)O (racemic) [mevalonate, (±)-Mevalonic acid 5-phosphate lithium salt hydrate, reference compound]",proliferation in mature hCO,"mature hCOs; 0.5 mM, 2 days",induces proliferation
same,rescue of proliferation under 10 μM simvastatin,2D hPSC-CM,rescued proliferation
"Cc1c[nH]c(-c2cnc(NCCNc3ccc(C#N)cn3)nc2-c2ccc(Cl)cc2Cl)n1 [CHIR99021, reference compound]","proliferation in mature hCO, compound individually",mature hCOs; 5 μM CHIR99021 or 1 μM compound 51 alone,failed to activate proliferation individually
same,"proliferation signature proteins (cell cycle network, mevalonate enzymes, nuclear transporters)",mature hCO,only the “cell cycle network” proteins were induced
NC(=O)c1ccc(-c2nc(-c3ccc4c(c3)OCO4)c(-c3ccccn3)[nH]2)cc1 [SB431542],pro-proliferative activity alone,[1],not sufficient
"CN1C(=O)c2sccc2N(C)c2nc(Nc3ccc(S(N)(=O)=O)cc3)ncc21 [XMU-MP-1, reference compound]",proliferation in mature hCO in combination with GSK3 inhibition (Ki-67 intensity),mature hCOs; 5 μM CHIR99021 with 1 μM compound 51 or 1 μM XMU-MP-1,synergistic effect on proliferation
same,off-target effects on cell cycle proteins,kinases,PLK4 and AURKB
CC(C)=CCC/C(C)=C/CC/C(C)=C/COP(=O)(O)OP(=O)(O)O [farnesyl pyrophosphate],rescue of proliferation under 10 μM simvastatin,2D hPSC-CM,incapable of rescuing proliferation
CC(C)=CCC/C(C)=C/CC/C(C)=C/CC/C(C)=C/COP(=O)(O)OP(=O)(O)O [geranylgeranyl pyrophosphate],rescue of proliferation under 10 μM simvastatin,2D hPSC-CM,rescued proliferation
CC(C)=CCC/C(C)=C/CC/C(C)=C/CC/C=C(\C)CC/C=C(\C)CCC=C(C)C [squalene],rescue of proliferation under 10 μM simvastatin,2D hPSC-CM,not
